Consider eleven molecules from ChEMBL document CHEMBL3991601, “The target landscape of clinical kinase drugs” (Science, 2017).

Assay [1] deals with Bone morphogenetic protein receptor type-1B (Homo sapiens, UniProt O00238).
Assay [2] deals with Cyclin-dependent kinase 3 (Homo sapiens, UniProt Q00526).
Assay [3] concerns the target GTP-binding protein 4 (Homo sapiens, UniProt Q9BZE4).
Assay [4] addresses Mitogen-activated protein kinase kinase kinase kinase 4 (Homo sapiens, UniProt O95819).
Assay [5] concerns the target Mitogen-activated protein kinase 10 (Homo sapiens, UniProt P53779).
Assay [6] has as its target Protein-tyrosine kinase 6 (Homo sapiens, UniProt Q13882).
Assay [7] concerns the target Serine/threonine-protein kinase SIK2 (Homo sapiens, UniProt Q9H0K1).
In assay [8] the target is T1, ADP/ATP translocase 2 (Homo sapiens, UniProt P05141).
T1 sequence (P05141 whole entry): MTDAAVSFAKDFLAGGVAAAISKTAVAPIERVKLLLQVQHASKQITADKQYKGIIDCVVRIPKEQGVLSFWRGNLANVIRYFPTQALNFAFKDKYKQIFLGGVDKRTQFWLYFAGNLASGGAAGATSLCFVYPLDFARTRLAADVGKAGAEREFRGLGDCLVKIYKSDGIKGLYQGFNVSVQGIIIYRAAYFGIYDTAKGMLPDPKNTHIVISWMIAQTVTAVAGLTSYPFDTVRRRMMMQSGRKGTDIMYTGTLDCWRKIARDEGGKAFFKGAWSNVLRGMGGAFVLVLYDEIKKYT

For assay [9], the target named is Serine/threonine-protein kinase 10 (Homo sapiens, UniProt O94804).
Assay [10] has as its target Non-receptor tyrosine-protein kinase TYK2 (Homo sapiens, UniProt P29597).
The target of assay [11] is T2, Serine/threonine-protein kinase ULK1 (Homo sapiens, UniProt O75385).
T2 sequence (O75385 whole entry): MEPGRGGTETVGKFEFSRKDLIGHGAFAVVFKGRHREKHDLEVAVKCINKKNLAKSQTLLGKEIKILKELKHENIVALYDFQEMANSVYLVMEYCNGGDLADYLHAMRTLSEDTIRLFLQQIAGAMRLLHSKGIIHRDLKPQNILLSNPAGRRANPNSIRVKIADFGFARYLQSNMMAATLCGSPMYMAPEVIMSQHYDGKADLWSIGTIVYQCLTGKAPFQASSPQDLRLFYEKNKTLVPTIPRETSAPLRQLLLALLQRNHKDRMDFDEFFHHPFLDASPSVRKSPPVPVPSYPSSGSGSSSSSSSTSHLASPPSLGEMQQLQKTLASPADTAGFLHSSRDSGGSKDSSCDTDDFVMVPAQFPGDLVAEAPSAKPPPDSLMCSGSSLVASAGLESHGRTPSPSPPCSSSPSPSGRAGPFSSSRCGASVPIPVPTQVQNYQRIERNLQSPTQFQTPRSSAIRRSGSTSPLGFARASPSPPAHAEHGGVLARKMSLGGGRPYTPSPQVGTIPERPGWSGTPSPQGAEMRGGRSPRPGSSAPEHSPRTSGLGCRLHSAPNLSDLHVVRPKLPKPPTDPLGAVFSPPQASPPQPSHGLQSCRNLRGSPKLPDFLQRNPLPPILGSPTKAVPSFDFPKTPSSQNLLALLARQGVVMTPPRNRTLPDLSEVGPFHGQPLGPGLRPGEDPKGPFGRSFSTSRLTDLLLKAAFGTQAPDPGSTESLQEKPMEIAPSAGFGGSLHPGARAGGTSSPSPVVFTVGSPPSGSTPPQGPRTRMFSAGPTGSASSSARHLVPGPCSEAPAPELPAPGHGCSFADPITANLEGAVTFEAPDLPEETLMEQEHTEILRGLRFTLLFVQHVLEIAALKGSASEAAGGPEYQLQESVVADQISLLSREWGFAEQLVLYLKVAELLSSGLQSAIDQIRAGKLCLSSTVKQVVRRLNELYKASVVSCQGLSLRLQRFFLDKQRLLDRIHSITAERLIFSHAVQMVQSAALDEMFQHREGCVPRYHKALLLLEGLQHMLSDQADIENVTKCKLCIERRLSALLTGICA

Assay [12] has as its target Wee1-like protein kinase (Homo sapiens, UniProt P30291).

What is called Kd is the free concentration of one partner at which half of the binding sites on the other are occupied at equilibrium, for simple one-to-one binding.

Calls of active or inactive are those of the source. For most assays here, no stated cut-off is given here; in the data, actives have a measured Kd and inactives only a lower limit.

Sequence of Non-receptor tyrosine-protein kinase TYK2 (P29597 whole entry): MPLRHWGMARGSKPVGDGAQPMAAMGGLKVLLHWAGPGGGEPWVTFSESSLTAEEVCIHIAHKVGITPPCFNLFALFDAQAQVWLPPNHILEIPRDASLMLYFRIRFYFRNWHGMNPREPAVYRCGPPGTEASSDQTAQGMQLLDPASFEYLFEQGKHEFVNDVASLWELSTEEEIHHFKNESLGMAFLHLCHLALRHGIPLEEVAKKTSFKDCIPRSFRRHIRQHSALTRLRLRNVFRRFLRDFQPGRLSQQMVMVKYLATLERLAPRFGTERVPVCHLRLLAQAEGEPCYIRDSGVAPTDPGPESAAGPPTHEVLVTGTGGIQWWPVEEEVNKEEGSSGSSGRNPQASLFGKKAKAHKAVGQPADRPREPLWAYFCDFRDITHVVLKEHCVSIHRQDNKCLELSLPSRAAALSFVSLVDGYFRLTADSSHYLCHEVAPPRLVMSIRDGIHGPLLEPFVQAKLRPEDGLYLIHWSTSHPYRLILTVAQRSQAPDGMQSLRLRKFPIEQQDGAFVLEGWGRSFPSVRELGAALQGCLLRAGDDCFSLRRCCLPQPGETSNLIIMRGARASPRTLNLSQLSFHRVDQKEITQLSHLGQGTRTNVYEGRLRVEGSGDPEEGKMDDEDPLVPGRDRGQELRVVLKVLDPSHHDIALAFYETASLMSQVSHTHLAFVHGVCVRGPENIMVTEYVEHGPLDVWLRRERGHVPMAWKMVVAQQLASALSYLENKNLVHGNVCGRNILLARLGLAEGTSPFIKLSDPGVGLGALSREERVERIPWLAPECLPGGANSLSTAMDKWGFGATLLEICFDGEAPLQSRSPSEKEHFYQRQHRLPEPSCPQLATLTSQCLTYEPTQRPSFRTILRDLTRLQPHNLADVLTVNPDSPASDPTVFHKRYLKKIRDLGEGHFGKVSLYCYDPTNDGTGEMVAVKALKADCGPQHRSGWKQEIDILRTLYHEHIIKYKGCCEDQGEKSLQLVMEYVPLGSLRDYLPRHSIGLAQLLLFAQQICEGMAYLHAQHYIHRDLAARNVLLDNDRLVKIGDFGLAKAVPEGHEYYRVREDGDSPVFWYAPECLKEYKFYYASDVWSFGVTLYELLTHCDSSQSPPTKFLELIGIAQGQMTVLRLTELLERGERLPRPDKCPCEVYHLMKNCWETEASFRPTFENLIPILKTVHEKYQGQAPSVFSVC
Sequence of Wee1-like protein kinase (P30291 whole entry): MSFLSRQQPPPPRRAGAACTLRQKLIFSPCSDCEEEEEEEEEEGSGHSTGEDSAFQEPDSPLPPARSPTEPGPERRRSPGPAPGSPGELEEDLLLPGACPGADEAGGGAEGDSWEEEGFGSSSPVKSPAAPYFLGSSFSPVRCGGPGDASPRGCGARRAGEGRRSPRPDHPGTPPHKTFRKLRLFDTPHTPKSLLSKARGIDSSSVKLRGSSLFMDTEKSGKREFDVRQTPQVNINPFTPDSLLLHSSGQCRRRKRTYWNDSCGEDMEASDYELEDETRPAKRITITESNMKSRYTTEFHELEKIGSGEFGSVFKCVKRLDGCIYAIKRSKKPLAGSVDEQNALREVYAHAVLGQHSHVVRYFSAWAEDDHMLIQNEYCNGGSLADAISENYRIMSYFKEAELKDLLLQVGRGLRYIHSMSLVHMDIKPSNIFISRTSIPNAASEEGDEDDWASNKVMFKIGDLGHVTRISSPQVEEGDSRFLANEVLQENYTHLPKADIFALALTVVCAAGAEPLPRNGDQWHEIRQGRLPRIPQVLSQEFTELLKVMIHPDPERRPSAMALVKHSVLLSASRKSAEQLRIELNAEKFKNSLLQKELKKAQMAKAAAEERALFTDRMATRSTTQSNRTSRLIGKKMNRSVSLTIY
Sequence of Serine/threonine-protein kinase SIK2 (Q9H0K1 whole entry): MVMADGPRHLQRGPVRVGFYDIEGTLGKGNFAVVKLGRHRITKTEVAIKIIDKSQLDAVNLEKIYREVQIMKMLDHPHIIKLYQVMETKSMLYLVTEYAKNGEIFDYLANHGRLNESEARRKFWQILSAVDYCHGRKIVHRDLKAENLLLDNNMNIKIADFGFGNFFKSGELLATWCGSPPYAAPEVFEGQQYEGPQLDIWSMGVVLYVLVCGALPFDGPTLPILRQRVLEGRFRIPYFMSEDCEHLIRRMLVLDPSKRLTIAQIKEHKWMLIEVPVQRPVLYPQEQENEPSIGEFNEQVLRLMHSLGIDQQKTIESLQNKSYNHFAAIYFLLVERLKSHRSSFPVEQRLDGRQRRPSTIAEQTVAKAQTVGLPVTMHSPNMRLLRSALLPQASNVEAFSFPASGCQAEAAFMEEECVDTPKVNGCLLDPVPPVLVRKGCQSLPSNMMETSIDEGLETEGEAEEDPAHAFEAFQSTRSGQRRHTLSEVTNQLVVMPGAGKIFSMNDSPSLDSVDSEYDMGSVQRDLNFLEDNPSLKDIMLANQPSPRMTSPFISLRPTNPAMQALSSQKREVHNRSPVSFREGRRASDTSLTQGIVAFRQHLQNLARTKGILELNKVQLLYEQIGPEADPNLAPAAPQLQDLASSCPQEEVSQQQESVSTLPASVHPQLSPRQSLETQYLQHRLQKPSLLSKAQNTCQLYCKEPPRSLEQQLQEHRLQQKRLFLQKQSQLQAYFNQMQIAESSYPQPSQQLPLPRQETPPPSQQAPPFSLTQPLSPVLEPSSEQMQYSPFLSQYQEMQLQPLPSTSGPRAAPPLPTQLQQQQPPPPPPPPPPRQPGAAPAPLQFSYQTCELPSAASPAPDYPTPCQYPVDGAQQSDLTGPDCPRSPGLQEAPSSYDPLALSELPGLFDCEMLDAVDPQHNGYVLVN
Sequence of Cyclin-dependent kinase 3 (Q00526 whole entry): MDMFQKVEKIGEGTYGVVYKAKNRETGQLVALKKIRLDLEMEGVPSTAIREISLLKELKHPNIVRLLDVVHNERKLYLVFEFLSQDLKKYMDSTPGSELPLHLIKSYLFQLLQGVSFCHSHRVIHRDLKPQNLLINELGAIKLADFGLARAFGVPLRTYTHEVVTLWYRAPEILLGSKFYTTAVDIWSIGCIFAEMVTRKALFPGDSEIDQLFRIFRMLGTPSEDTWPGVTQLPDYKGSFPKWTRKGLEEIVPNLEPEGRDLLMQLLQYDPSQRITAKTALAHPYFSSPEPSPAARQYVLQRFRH
Sequence of Mitogen-activated protein kinase kinase kinase kinase 4 (O95819 whole entry): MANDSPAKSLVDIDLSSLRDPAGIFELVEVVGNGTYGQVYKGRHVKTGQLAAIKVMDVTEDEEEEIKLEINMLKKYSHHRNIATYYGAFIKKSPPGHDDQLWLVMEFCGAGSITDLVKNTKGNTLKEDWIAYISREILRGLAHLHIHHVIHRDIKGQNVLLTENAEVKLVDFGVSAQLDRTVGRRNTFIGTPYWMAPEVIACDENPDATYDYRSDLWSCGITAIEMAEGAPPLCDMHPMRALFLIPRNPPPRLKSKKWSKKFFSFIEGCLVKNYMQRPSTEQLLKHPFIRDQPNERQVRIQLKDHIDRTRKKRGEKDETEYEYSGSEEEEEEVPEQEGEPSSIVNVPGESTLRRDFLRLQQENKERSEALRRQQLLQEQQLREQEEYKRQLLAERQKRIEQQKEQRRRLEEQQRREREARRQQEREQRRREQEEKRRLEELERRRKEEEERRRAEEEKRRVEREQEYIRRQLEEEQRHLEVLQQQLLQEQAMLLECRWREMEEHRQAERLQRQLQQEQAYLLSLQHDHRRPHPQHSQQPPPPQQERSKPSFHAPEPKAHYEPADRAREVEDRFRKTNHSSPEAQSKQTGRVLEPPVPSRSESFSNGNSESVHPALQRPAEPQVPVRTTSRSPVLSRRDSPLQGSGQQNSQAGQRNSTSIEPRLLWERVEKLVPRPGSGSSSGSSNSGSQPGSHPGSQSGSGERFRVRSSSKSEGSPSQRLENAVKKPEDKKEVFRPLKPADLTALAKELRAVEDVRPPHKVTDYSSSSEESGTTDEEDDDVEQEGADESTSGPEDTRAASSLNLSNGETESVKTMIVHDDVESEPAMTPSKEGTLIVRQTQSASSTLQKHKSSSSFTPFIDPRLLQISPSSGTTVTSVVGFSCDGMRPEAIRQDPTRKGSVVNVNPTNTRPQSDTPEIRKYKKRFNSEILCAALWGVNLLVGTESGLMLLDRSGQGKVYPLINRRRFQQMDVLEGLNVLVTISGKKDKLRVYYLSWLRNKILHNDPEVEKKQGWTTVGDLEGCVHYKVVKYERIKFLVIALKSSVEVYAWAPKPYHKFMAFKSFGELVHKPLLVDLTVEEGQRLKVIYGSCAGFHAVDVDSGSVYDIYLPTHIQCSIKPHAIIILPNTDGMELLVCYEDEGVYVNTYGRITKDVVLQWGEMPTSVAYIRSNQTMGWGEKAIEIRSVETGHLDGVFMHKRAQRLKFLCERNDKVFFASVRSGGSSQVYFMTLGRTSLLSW
Sequence of Bone morphogenetic protein receptor type-1B (O00238 whole entry): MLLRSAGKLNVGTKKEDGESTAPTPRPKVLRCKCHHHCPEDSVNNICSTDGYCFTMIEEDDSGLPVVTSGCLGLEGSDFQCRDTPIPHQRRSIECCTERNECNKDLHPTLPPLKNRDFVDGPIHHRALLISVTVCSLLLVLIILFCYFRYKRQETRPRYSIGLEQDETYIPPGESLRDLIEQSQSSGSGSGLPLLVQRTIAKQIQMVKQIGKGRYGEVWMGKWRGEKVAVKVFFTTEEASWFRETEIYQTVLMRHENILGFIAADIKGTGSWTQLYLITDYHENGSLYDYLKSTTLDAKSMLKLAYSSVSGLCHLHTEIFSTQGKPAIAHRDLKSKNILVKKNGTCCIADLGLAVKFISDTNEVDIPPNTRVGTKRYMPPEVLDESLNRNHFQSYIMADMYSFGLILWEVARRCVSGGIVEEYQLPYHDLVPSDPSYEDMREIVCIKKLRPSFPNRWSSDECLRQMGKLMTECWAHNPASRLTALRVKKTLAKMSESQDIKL

Take `C[C@@H](c1ccc2nccn2c1)n1nnc2ncc(-c3cnn(C)c3)nc21` [SAVOLITINIB]: the Kd in assay [1], in assay [2], in assay [3], in assay [4], in [5] and in assay [6] was > 30 µM (inactive) each time. In addition, the Kd in [7], in assay [8], in assay [9], in [10], in [11] and in assay [12] was > 30 µM (inactive) throughout.

As to `Cc1ccc(-n2nc(C(C)(C)C)cc2NC(=O)NCc2cc(F)ccc2Oc2ccc3c(cnn3CCO)c2)cc1` [PEXMETINIB], the Kd was > 30 µM (inactive) in assay [1]; > 30 µM (inactive) in [2]; > 30 µM (inactive) in assay [3]; 0.222 µM (active) in assay [4]; 0.195 µM in assay [5]; > 30 µM (inactive) in assay [6]. In addition, the Kd in [7], in assay [8], in [9], in assay [10], in assay [11] and in [12] was > 30 µM (inactive) throughout.

In the case of `C1=C/COCc2cc(ccc2OCCN2CCCC2)Nc2nccc(n2)-c2cccc(c2)COC/1` [PACRITINIB], the Kd in [1] is > 30 µM (inactive); in assay [2], > 30 µM (inactive); in [3] it was > 30 µM (inactive); in assay [4], 0.293 µM (active); in [5], > 30 µM (inactive); in assay [6] it was > 30 µM (inactive). The Kd in [7], in assay [8], in [11] and in assay [12] was > 30 µM (inactive) throughout.

For `COc1cc(N2CCC(N3CCN(C)CC3)CC2)ccc1Nc1ncnc(Nc2ccccc2S(=O)(=O)C(C)C)n1` [ASP-3026], the Kd in assay [1] is 1.82 µM (active); in assay [2], > 30 µM (inactive); in [3], 0.009 µM; in assay [4] it was > 30 µM (inactive); in [5], > 30 µM (inactive); in assay [6], 0.061 µM (active). Moreover, the Kd in assay [7] was 0.123 µM (active); in assay [8] it was > 30 µM (inactive); in assay [9] it was 23.7 µM (active); in assay [10], > 30 µM (inactive); in assay [11], > 30 µM (inactive); in assay [12], > 30 µM (inactive).

With `Cn1ncc(Cl)c1-c1cc(C(=O)N[C@H](CN)Cc2cccc(F)c2)sc1Cl` [AFURESERTIB], the Kd in [1], in [2], in assay [3], in assay [4], in [5] and in assay [6] was > 30 µM (inactive) in each case. Further, the Kd in assay [7], in assay [8], in assay [9], in [10] and in [12] was > 30 µM (inactive) throughout.

Take `CN1CC[C@@H](c2c(O)cc(O)c3c(=O)cc(-c4ccccc4Cl)oc23)[C@@H]1CO`: the Kd in [1], in assay [2], in assay [3], in assay [4], in assay [5] and in assay [6] was > 30 µM (inactive) in each case. Also, the Kd in assay [7], in [8], in [9], in assay [10], in assay [11] and in [12] was > 30 µM (inactive) each time.

For the molecule `O=C(Nc1ccc(-c2ccnc(Nc3ccc(N4CCOCC4)cc3)n2)cc1)C1CCCN1` (stereo not drawn) [XL-019], the Kd in assay [1], in [2], in assay [3], in assay [4], in assay [5] and in assay [6] was > 30 µM (inactive) in each case. For the same molecule, the Kd was 0.3 µM (active) in assay [7]; > 30 µM (inactive) in assay [8]; > 30 µM (inactive) in [9]; > 30 µM (inactive) in assay [10]; > 30 µM (inactive) in [11]; > 30 µM (inactive) in [12].

For the molecule `CCn1c(-c2nonc2N)nc2c(C#CC(C)(C)O)ncc(OC[C@H]3CCCNC3)c21` [GSK-690693], the Kd in assay [8] is > 30 µM (inactive).

In the case of `C=CC(=O)N1CCC(Oc2cc3c(Nc4ccc(Cl)c(Cl)c4F)ncnc3cc2OC)CC1` [POZIOTINIB], the Kd in [1], in assay [2], in [3], in assay [4], in assay [5] and in assay [6] was > 30 µM (inactive) in each case. Further, the Kd in assay [7], in assay [8], in [9], in [10], in [11] and in assay [12] was > 30 µM (inactive) in each case.

As for `O=c1sn(-c2cccc3ccccc23)c(=O)n1Cc1ccccc1` [TIDEGLUSIB], the Kd in [1], in assay [2], in [3], in [4], in assay [5] and in assay [6] was > 30 µM (inactive) throughout. The Kd in assay [7], in assay [8], in assay [9], in assay [10], in assay [11] and in assay [12] was > 30 µM (inactive) each time.

As to `CN(C)C(=O)c1cc2cnc(Nc3ccc(N4CCNCC4)cn3)nc2n1C1CCCC1` [RIBOCICLIB], the Kd in assay [1], in assay [2], in assay [3], in assay [4], in [5] and in assay [6] was > 30 µM (inactive) in each case. For the same molecule, the Kd in assay [7] was 2.49 µM (active); in assay [8], > 30 µM (inactive); in assay [9], > 30 µM (inactive); in assay [10], > 30 µM (inactive); in assay [11], > 30 µM (inactive); in [12], > 30 µM (inactive).
